In article PMC3243694, “Integrated Dataset of Screening Hits against Multiple Neglected Disease Pathogens” (PLoS Neglected Tropical Diseases, 2011):
≈ marks a conversion by molar mass, not a printed value.

Tests used:
[1] = system: Trypanosoma cruzi, Tulahuen CL2 strain; experiment: Antitrypanosomal activity assay, T. cruzi in MRC-5 cells; assay type: cell-based; details: T. cruzi Tulahuen CL2 in MRC-5 cells, 7 days
Method: (§1) The compound set was tested against the following parasites: intra-erythrocytic forms in human red blood cells of P. falciparum K1 strain (malaria), [16], [32], [33], [35], bloodstream forms of T. brucei Squib 427 strain (human African trypanosomiasis, HAT), [31], [32], [34], intracellular amastigotes of T. cruzi Tulahuen CL2, beta- galactosidase strain (Chagas' Disease), [32]–[35], intracellular amastigotes of L. infantum MHOM/MA(BE)/67 (leishmaniasis), [32]–[36], larval and/or adult worms of S. mansoni Puerto Rican strain (schistosomiasis), [31], [37], microfilariae of B. malayi (lymphatic filariasis), [30] and microfilariae of O. ochengi or O. lienalis (onchocerciasis), [30]. It should be noted that the human pathogen for onchocerciasis is Onchocerca volvulus, but due to lack of a suitable in vitro assay or animal models for this pathogen, O. ochengi and lienalis, which are both animal pathogens, are used in the primary and secondary assays, [30].
171 of the 744 actives passed the initial criterion of IC50<1 µg/ml for T. cruzi Tulahuen CL2, beta galactosidase strain maintained on MRC-5SV2 cells in MEM medium (MRC-5 cell/parasite inoculum: 4.10^3 cells/well+4.10^4 parasites/well), supplemented with […] L-glutamine, 16.5 mM NaHCO3 and 5% heat inactivated fetal calf serum. […] Of these, 109 were eliminated [structures #1–6] for poor selectivity versus mammalian cells (SI<50) and an additional 11 due to undesirable chemical attributes. The remaining 51 compounds were sorted into 10 series (45 compounds) and 6 singletons [structures # 21, 22]. Two of these series with excellent potency against T. cruzi, limited activity against other protozoa and SI values >50 (not shown), have been transferred to DNDi for further evaluation.

[2] = system: MRC-5 cell line (diploid human embryonic lung fibroblast); experiment: Cytotoxicity on MRC-5 cells; assay type: cell-based
From the text: [table] An important part of the screen is the evaluation of all compounds for cytotoxicity using the diploid human embryonic lung fibroblast MRC-5 cell line (Figure 2). Further evaluation of cytotoxicity also takes advantage of the assays for intracellular protozoan parasites, as in the case of L. infantum and T. cruzi, which include murine peritoneal macrophage host cells and MRC-5SV2 human lung fibroblast cells, respectively, in the culture system.

[3] = system: Onchocerca (lienalis or ochengi) microfilariae; experiment: Anti-Onchocerca microfilariae motility assay; assay type: cell-based, Onchocerca lienalis or O. ochengi
Method: as §1
(§2) 4240 compound s were screened against O. ochengi at the University of Buea in Cameroon, while a subset of […] compounds was successfully screened in UK by the Northwick Park Institute for Medical Research against O. lienalis, at a uniform molarity. […] After removing molecules that were toxic to mammalian cells (IC50<5 µg/ml), 292 molecules remained for further evaluation. […] From the latter sub-set, […] distinct chemical series and one singleton [structure # 35] were active against both microfilaria and adults. One series [structures # 2, 3] was deemed not interesting due to lack of selectivity against mammalian cells. The remaining series is being transferred to ANDI for further progression as part of a new collaboration.

[4] = system: Plasmodium falciparum K1 strain; experiment: Anti-Plasmodium activity assay (Malstat); assay type: cell-based; details: P. falciparum K1, 72 h
Method: as §1

[5] = system: Schistosoma mansoni adult worms; experiment: Anti-Schistosoma activity assay (adult worm motility); assay type: cell-based; details: S. mansoni adult worms; 12.5 µM (method: 10 µg/ml or 12.5 µM)
Method: as §1
A subset of 9478 of the 10,000 compound collection was tested against the Puerto Rican strain of S. mansoni. 6144 of these were tested in a primary larval assay followed by the ex-vivo adult secondary screen. The remainder was screened only in the adult assay. […] The 65 compounds were sorted by chemical attractiveness, potency against adult schistosomes in culture, selectivity against other parasites, and toxicity to mammalian cells in culture. Based on this analysis, 5 series encompassing 13 compounds were chosen for advancement through the African Network for Drug and Diagnostic Innovation (ANDI) and other PDPs. Representative structures [structures # 13, 27, 28] are shown (Table S1). These compounds are unburdened by obvious toxic moieties, have acceptable compliance with the Lipinski rules, are selectively active against schistosomes and are not overtly toxic to mammalian cells. It has unfortunately not been possible to titrate all of these hits in culture; of about 50% for which such data are available, none has an IC50<2 µg/ml (which is the initial potency criteria).

Onchocerca adult worms = assay type: cell-based
From the text: In some cases, particularly for the antifilarial screens, a second whole organism test with adult stage parasites is included prior to animal evaluation. The decision to utilize microfilariae for primary screening was based on throughput and biological considerations. It is difficult to acquire enough adult filariae to enable screening more than 1000 compounds per year, a rate far lower than needed for timely evaluation of the available compounds. In light of this situation, and considering that we are targeting molecules that are active on both stages, microfilariae screening was adopted as a suitable filter to identify compounds with potential macrofilaricidal activity.
as §2

[6] = system: Trypanosoma brucei brucei Squib-427 strain; experiment: Antitrypanosomal activity assay, T. brucei (resazurin); assay type: cell-based; details: T. brucei Squib 427 bloodstream forms, 72 h
Method: as §1

[7] = system: Brugia malayi microfilariae; experiment: Anti-Brugia malayi microfilariae motility assay; assay type: cell-based; details: B. malayi microfilariae
Method: as §1
(§3) As result of logistics issues attributed to lost shipments of some compounds, only 6160 molecules of the 10,000 compound set were tested, at a uniform molarity, against B. malayi, including 6063 against microfilariae and 756 against adult worms (these sets overlap). […] Greatest priority was given to compounds with activity against adult worms, as no macrofilaricide is available for use in control campaigns and the activity of ivermectin as a microfilaricidal agent is unlikely to be bettered in a new series. Of the test set, 53 compounds met the activity criterion for microfilariae (100% motility reduction) and an additional 58 inhibited adult worm motility ≥75% at 10 µM. These were titrated to determine an IC50 value to support prioritization. Following cytotoxicity triage [structures # 1, 4, 6], eight compounds met the activity criterion for adult worms (i.e., 100% inhibition of adult worm motility), four of which were also active against microfilariae [structures # 14, 29, 30, 32]. […] Of these, the most interesting was TDR76699 [structure # 29]; this compound has very good activity against adult worms (IC50 = 0.1 µg/ml) and is also active against microfilariae (IC50 = 0.7 µg/ml). None of the other compounds tested against adult parasites had IC50 values ≤0.5 µg/ml, a threshold which would reduce concerns about specificity. However, a few series [structures # 31, 33, 34], appear interesting for future medicinal chemistry projects.

[8] = system: Brugia malayi adult worms; experiment: Anti-Brugia malayi adult worm motility assay; assay type: cell-based; details: B. malayi adult worms
From the text: as §3, with “In some cases, particularly for the antifilarial screens, a second whole organism test with adult stage parasites is included prior to animal evaluation. The decision to utilize microfilariae for primary screening was based on throughput and biological considerations. It is difficult to acquire enough adult filariae to enable screening more than 1000 compounds per year, a rate far lower than needed for timely evaluation of the available compounds. In light of this situation, and considering that we are targeting molecules that are active on both stages, microfilariae screening was adopted as a suitable filter to identify compounds with potential macrofilaricidal activity. As” for “As”, “Of the test set, 53 compounds met the activity criterion for microfilariae (100% motility reduction) and an additional 58 inhibited adult worm motility ≥75% at 10 µM.” left out

SMILES | CHA IC50 [1] | CYT IC50 [2] | ONC/MF % Motility Reduction at 12.5µM [3] | MAL IC50 [4] | SCH % Motility Reduction at 12.5µM [5] | ONC/AW % worm Mortality @ 12.5µM (Onchocerca adult worms) | HAT IC50 [6] | LF/MF % Motility Reduction at 12.5µM [7] | LF/AW % Motility Reduction at 12.5µM [8] | IC50 microfilariae ([7]; titration) | IC50 adult worms ([8]; titration)
Cc1cc(NC(=O)CSc2ccc3nnc(-c4cccs4)n3n2)no1 [TDR78826] | 4.97 µg/mL | >11.17 µg/mL | 6.7% | 0.16 µg/mL | 0% | 0% |  |  |  |  | 
CSCc1csc(NC(=O)Cc2ccc(Cl)cc2)n1 [TDR81206] | 2.47 µg/mL | 3.7 µg/mL | 100% | 5.98 µg/mL | 0% | 75% | 3.0 µg/mL |  |  |  | 
CCCc1cc(=O)[nH]c(-n2nc(C)cc2NC(=O)C23CC4CC(CC(C4)C2)C3)n1 [TDR79936] | <0.12 µg/mL | <0.12 µg/mL | 100% | <0.12 µg/mL | 100% | 75% | <0.12 µg/mL |  |  |  | 
O=C(COc1ccc(Cl)cc1Cl)Nc1nnc(C23CC4CC(CC(C4)C2)C3)s1 [TDR76660] | >13.15 µg/mL | >13.15 µg/mL | 0% | >13.15 µg/mL | 0% |  | >13.15 µg/mL | 100% | 0% |  | 
Cc1cccc(-n2nc3c(c2NC(=O)Nc2cccc(Cl)c2)CSC3)c1 [TDR76699] | 9.48 µg/mL | >11.55 µg/mL | 33% | >11.55 µg/mL | 25% |  | >11.55 µg/mL | 100% | 100% | 0.7 µg/mL (≈ 1.82 µM) | 0.1 µg/mL (≈ 0.26 µM)
O=C(Nc1nc2c(s1)CSc1ccccc1-2)C1COc2ccccc2O1 (stereo not shown) [TDR77035] | 0.5 µg/mL | 2.62 µg/mL | 100% | 4.75 µg/mL | 100% |  | 0.37 µg/mL | 33% | 0% |  | 
CCOC(=O)c1ccc(NC(=O)CSc2nnc(NC(=O)C34CC5CC(CC(C5)C3)C4)s2)cc1 [TDR76705] | >15.02 µg/mL | >15.02 µg/mL | 33.3% | >15.02 µg/mL | 0% |  | >15.02 µg/mL | 100% | 100% |  | 
COC(=O)c1c(NC(=O)c2cc3ccccc3oc2=O)sc2c1CCN(Cc1ccccc1)C2 [TDR76873] | 0.64 µg/mL | 8.92 µg/mL | 40% | >15.33 µg/mL | 0% |  | >15.33 µg/mL | 100% | 100% |  | 
CCC(=O)c1c(NC(=O)c2ccc(C)cc2)sc2c1CCN(CC)C2 [TDR76871] | 0.48 µg/mL | >11.79 µg/mL | 0% | 1.87 µg/mL | 0% |  | 0.32 µg/mL | 33.3% | 22.3% |  | 
